Reference: patent US9815842B2, “Pyrazolo pyrimidine derivatives and their use as MALT1 inhibitors” (Novartis AG, priority 2014, dated 2017)

Tests used:
[1] = target: C-domain of MALT1 (amino acids 329-824) (Homo sapiens (Human), UniProt Q9UDY8); experiment: MALT1 biochemical assay (fluorescence lifetime enzyme activity assay); settings: 60 min pre-incubation, 2.5 nM enzyme, 1 μM peptide substrate
Procedure: The readout parameter is the increase of fluorescence lifetime over time, proportional to enzyme activity.
The assay employs a short peptide substrate labeled with the single fluorophore PT14 as a fluorescence lifetime probe sensitive to the cleavage state of the substrate (PT14: 6-(9-oxo-9H-acridin-10-yl)-hexanoate, AssayMetrics, UK). […] The assay buffer consists of 200 mM Tris/HCl at pH 7.5, 0.8 M Na citrate, 100 μM EGTA, 100 μM DTT and 0.05% (w/v) CHAPS. […] Test compounds were dissolved in 100% (v/v) DMSO or a mixture containing 90% (v/v) DMSO and 10% (v/v) H2O at a stock concentration of 100 mM. Serial dilutions of test compounds were prepared using either 100% (v/v) DMSO or a mixture containing 90% (v/v) DMSO and 10% (v/v) H2O.

[2] = target: cIAP2-MALT1 fusion protein (Homo sapiens, UniProt Q9UDY8); experiment: cell-based
Procedure: For the measurement of compound inhibition, 0.25 μl of test compound were mixed with 12.5 μl of enzyme in wells of the 384-well plates, and incubated for 60 minutes at room temperature (22° C.). After that, 12.5 μl of substrate was added, and the enzymatic reaction was allowed to proceed for 60 minutes at room temperature (22° C.). […] The DMSO content was between 0.9 and 1% (v/v). […] The IC50 value was calculated from the plot of percentage inhibition versus inhibitor concentration using non-linear regression analysis software (Origin, OriginLab Corporation, USA). The data were fitted using a 4 Parameter Logistic Model, characterized by the following equation: y=A2+(A1−A2)/(1+(x/IC50)^p) where y is the %-inhibition at the inhibitor concentration, x. A1 is the lowest inhibition value, and A2 the maximum inhibition value.

[3] = test system: Human IL2 promoter; experiment: Human IL2 promoter reporter gene assay (RGA) in Jurkat cells; format: cell-based; settings: Jurkat clone K22 290_H23, anti-CD28 mAb + PMA stimulation 5.5 h
Procedure: Human IL2 Promoter Reporter Gene Assay (RGA) in Jurkat Cells
The transfected Jurkat clone K22 290_H23 was propagated in RPMI 1640 supplemented with 10% heat inactivated fetal calf serum, 50 μM 2-mercaptoethanol and 1 mg/ml Geneticin. The cell concentration should not exceed 1×10e6/ml during culturing. The cells should not exceed passage 30. Prior to the assay the cells were washed and prepared to the concentration of 2×10e6 cells/ml.
Compound dilutions were made as 2×-concentrated solutions then diluted 1/2 by addition to cells. Two hundred and fifty μl of compound dilution and 250 μl of cells were mixed together in wells of a 96-deep well plate. Cells/compounds premix were incubated 30 min at 37° C. and 5% CO2 directly in the deep well plate.
After pre-incubation of cells with compounds, cells were stimulated with anti-CD28 mAb (clone 15E8) at 3 μg/ml+PMA at 1 μg/ml. Both co-stimulants were diluted in culture medium at a 10×-concentrated solution. 10 μl of co-stimulants were pipetted into the white 96-well plates and 100 μl of cell/compound mix was immediately added in duplicates. The cells were stimulated for 5.5 h at 37° C. and 5% CO2.
After cell stimulation, 50 μl of BriteLitePlus reagent (Perkin Elmer) was added to each well and the bioluminescence was measured with a Wallac EnVision reader (Perkin Elmer).

Sequence of cIAP2-MALT1 fusion protein (Q9UDY8 2-824 limits assumed): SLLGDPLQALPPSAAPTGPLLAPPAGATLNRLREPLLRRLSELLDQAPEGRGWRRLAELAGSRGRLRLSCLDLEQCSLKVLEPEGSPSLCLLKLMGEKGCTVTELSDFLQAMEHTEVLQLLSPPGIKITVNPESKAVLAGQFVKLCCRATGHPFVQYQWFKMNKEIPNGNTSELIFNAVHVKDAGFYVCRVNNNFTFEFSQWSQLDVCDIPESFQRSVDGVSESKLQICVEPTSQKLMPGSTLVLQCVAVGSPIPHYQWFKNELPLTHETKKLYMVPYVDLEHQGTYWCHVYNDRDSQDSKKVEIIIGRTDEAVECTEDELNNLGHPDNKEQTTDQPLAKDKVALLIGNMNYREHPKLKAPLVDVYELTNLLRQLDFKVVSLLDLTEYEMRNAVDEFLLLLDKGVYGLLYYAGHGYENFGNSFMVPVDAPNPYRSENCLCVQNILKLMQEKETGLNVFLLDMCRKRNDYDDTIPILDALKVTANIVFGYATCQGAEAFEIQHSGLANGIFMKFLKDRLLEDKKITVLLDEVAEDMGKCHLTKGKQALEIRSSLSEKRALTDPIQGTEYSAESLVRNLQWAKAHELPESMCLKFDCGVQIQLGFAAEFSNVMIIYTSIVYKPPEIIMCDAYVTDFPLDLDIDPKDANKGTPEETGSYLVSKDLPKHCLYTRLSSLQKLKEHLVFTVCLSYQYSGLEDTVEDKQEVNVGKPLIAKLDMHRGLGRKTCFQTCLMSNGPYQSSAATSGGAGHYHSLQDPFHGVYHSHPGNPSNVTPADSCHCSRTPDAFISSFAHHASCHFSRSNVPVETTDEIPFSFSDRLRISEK
Sequence of C-domain of MALT1 (amino acids 329-824) (Q9UDY8 329-824): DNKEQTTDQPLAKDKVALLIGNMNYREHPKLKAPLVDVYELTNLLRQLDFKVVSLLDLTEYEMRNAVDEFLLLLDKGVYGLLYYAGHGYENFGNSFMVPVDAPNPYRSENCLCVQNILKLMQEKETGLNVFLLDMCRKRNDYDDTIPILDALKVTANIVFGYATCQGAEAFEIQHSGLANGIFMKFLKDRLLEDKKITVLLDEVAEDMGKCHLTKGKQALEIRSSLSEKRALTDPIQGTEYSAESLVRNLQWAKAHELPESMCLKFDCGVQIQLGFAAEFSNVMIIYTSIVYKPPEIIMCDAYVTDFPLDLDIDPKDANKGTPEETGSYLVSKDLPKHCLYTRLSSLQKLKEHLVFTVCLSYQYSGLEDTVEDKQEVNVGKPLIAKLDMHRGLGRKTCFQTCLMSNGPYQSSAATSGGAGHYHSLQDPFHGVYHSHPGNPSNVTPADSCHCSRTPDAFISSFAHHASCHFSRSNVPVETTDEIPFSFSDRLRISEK

Row | SMILES | IC50 [1] | IC50 [2] | IC50 [3]
1 | CO[C@@H](c1c(NC(=O)Nc2cnc(-n3nccn3)c(C(F)(F)F)c2)cnc2cc(Cl)nn12)C(C)C [Example 4, (R)-1-(6-(2H-1,2,3-triazol-2-yl)-5-(trifluoromethyl)pyridin-3-yl)-3-(2-chloro-7-(1-methoxy-2-methylpropyl)pyrazolo[1,5-a]pyrimidin-6-yl)urea] | 6 nM | 61 nM | –
2 | CO[C@@H](c1c(NC(=O)Nc2cnc(-n3nccn3)c(Cl)c2)cnc2cc(Cl)nn12)C(C)C [Example 5, (R)-1-(5-chloro-6-(2H-1,2,3-triazol-2-yl)pyridin-3-yl)-3-(2-chloro-7-(1-methoxy-2-methylpropyl)pyrazolo[1,5-a]pyrimidin-6-yl)urea] | 5 nM | 112 nM | –
3 | COc1cc(NC(=O)Nc2cnc3cc(Cl)nn3c2[C@H](C)OC)cnc1-n1nccn1 [Example 11, (S)-1-(2-chloro-7-(1-methoxyethyl)pyrazolo[1,5-a]pyrimidin-6-yl)-3-(5-methoxy-6-(2H-1,2,3-triazol-2-yl)pyridin-3-yl)urea] | 19 nM | 164 nM | –
4 | CO[C@@H](C)c1c(NC(=O)Nc2ccnc(Cl)c2)cnc2cc(Cl)nn12 [Example 12, (S)-1-(2-chloro-7-(1-methoxyethyl)pyrazolo[1,5-a]pyrimidin-6-yl)-3-(2-chloropyridin-4-yl)urea] | 14 nM | 71 nM | –
5 | COC(C)(C)c1c(NC(=O)Nc2ccnc(C(F)(F)F)c2)cnc2cc(Cl)nn12 [Example 15, 1-(2-chloro-7-(2-methoxypropan-2-yl)pyrazolo[1,5-a]pyrimidin-6-yl)-3-(2-(trifluoromethyl)pyridin-4-yl)urea] | 5 nM | 110 nM | –
6 | CC1(c2c(NC(=O)Nc3ccnc(C(F)(F)F)c3)cnc3cc(Cl)nn23)CC1 [Example 17, 1-(2-chloro-7-(1-methylcyclopropyl)pyrazolo[1,5-a]pyrimidin-6-yl)-3-(2-(trifluoromethyl)pyridin-4-yl)urea] | 11 nM | 117 nM | –
7 | Cc1cc(CO)nn1-c1ccc(NC(=O)Nc2cnc3cc(Cl)nn3c2C(C)C)cc1Cl [Example 28, 1-(3-chloro-4-(3-(hydroxymethyl)-5-methyl-1H-pyrazol-1-yl)phenyl)-3-(2-chloro-7-isopropylpyrazolo[1,5-a]pyrimidin-6-yl)urea] | – | 215 nM | –
8 | CC(C)c1c(NC(=O)Nc2cc(Cl)cc3c2NC(=O)C3)cnc2cc(Cl)nn12 [Example 31, 1-(5-chloro-2-oxoindolin-7-yl)-3-(2-chloro-7-isopropylpyrazolo[1,5-a]pyrimidin-6-yl)urea] | 14 nM | 349 nM | –
9 | CC(C)(C)c1c(NC(=O)Nc2cnc(-n3nccn3)c(Cl)c2)cnc2cc(Cl)nn12 [Example 34, 1-(7-(tert-butyl)-2-chloropyrazolo[1,5-a]pyrimidin-6-yl)-3-(5-chloro-6-(2H-1,2,3-triazol-2-yl)pyridin-3-yl)urea] | 4 nM | 106 nM | –
10 | CC1(c2c(NC(=O)Nc3ccnc(C(F)(F)F)c3)cnc3cc(Cl)nn23)CCCO1 (stereo not shown) [Example 36, 1-(2-chloro-7-(2-methyltetrahydrofuran-2-yl)pyrazolo[1,5-a]pyrimidin-6-yl)-3-(2-(trifluoromethyl)pyridin-4-yl)urea] | 9 nM | 183 nM | –
11 | CO[C@@H](c1c(NC(=O)Nc2ccnc(C(F)(F)F)c2)cnc2cc(Cl)nn12)C(C)C [Example 37, (R)-1-(2-chloro-7-(1-methoxy-2-methylpropyl)pyrazolo[1,5-a]pyrimidin-6-yl)-3-(2-(trifluoromethyl)pyridin-4-yl)urea] | 11 nM | 221 nM | –
12 | COCCO[C@@H](C)c1c(NC(=O)Nc2cnc(-n3nccn3)c(Cl)c2)cnc2cc(Cl)nn12 [Example 39, (S)-1-(5-chloro-6-(2H-1,2,3-triazol-2-yl)pyridin-3-yl)-3-(2-chloro-7-(1-(2-methoxyethoxy)ethyl)pyrazolo[1,5-a]pyrimidin-6-yl)urea] | 3 nM | 60 nM | –
13 | CC(C)(C)OC(=O)N1CCOC(c2c(NC(=O)Nc3cnc(-n4nccn4)c(Cl)c3)cnc3cc(Cl)nn23)C1 (stereo not shown) [Example 66, tert-butyl 2-(2-chloro-6-(3-(5-chloro-6-(2H-1,2,3-triazol-2-yl)pyridin-3-yl)ureido)pyrazolo[1,5-a]pyrimidin-7-yl)morpholine-4-carboxylate] | – | 241 nM | –
14 | Cn1ccnc1-c1c(NC(=O)Nc2cnc(-n3nccn3)c(Cl)c2)cnc2cc(Cl)nn12 [Example 86, 1-(5-chloro-6-(2H-1,2,3-triazol-2-yl)pyridin-3-yl)-3-(2-chloro-7-(1-methyl-1H-imidazol-2-yl)pyrazolo[1,5-a]pyrimidin-6-yl)urea] | – | 569 nM | –
15 | COCC(OC)c1c(NC(=O)Nc2cnc(-n3nccn3)c(C(F)(F)F)c2)cnc2cc(Cl)nn12 (stereo not shown) [Example 108, 1-(6-(2H-1,2,3-triazol-2-yl)-5-(trifluoromethyl)pyridin-3-yl)-3-(2-chloro-7-(1,2-dimethoxyethyl)pyrazolo[1,5-a]pyrimidin-6-yl)urea] | 8 nM | – | 52 nM
16 | COCC(OC)c1c(NC(=O)Nc2ccnc(C(F)(F)F)c2)cnc2cc(Cl)nn12 (stereo not shown) [Example 109, 1-(2-chloro-7-(1,2-dimethoxyethyl)pyrazolo[1,5-a]pyrimidin-6-yl)-3-(2-(trifluoromethyl)pyridin-4-yl)urea] | 53 nM | – | 218 nM
17 | COC[C@@H](C)c1c(NC(=O)Nc2cnc(-n3nccn3)c(C(F)(F)F)c2)cnc2cc(Cl)nn12 [Example 110, (S)-1-(6-(2H-1,2,3-triazol-2-yl)-5-(trilfuoromethyl)pyridin-3-yl)-3-(2-chloro-7-(1-methoxypropan-2-yl)pyrazolo[1,5-a]pyrimidin-6-yl)urea] | 9 nM | – | 115 nM
18 | COC[C@H](C)c1c(NC(=O)Nc2cnc(-n3nccn3)c(C(F)(F)F)c2)cnc2cc(Cl)nn12 [Example 111, (R)-1-(6-(2H-1,2,3-triazol-2-yl)-5-(trifluoromethyl)pyridin-3-yl)-3-(2-chloro-7-(1-methoxypropan-2-yl)pyrazolo[1,5-a]pyrimidin-6-yl)urea] | 3 nM | – | 54 nM
19 | CN[C@@H](C)c1c(NC(=O)Nc2cnc(-n3nccn3)c(Cl)c2)cnc2cc(Cl)nn12 [Example 119, (S)-1-(5-chloro-6-(2H-1,2,3-triazol-2-yl)pyridin-3-yl)-3-(2-chloro-7-(1-(methylamino)ethyl)pyrazolo[1,5-a]pyrimidin-6-yl)urea] | – | 157 nM | –
20 | CN[C@H](c1c(NC(=O)Nc2cnc(-n3nccn3)c(Cl)c2)cnc2cc(Cl)nn12)C(C)C [Example 124, (S)-1-(5-chloro-6-(2H-1,2,3-triazol-2-yl)pyridin-3-yl)-3-(2-chloro-7-(2-methyl-1-(methylamino)propyl)pyrazolo[1,5-a]pyrimidin-6-yl)urea] | 8 nM | – | 41 nM
21 | CN1CCOCC1c1c(NC(=O)Nc2cnc(-n3nccn3)c(Cl)c2)cnc2cc(Cl)nn12 (stereo not shown) [Example 125, 1-(5-chloro-6-(2H-1,2,3-triazol-2-yl)pyridin-3-yl)-3-(2-chloro-7-(4-methylmorpholin-3-yl)pyrazolo[1,5-a]pyrimidin-6-yl)urea] | 9 nM | – | 138 nM
22 | COC[C@@H](OC)c1c(NC(=O)Nc2cnc(-n3nccn3)c(Cl)c2)cnc2cc(Cl)nn12 [Example 127, (S)-1-(5-chloro-6-(2H-1,2,3-triazol-2-yl)pyridin-3-yl)-3-(2-chloro-7-(1,2-dimethoxyethyl)pyrazolo[1,5-a]pyrimidin-6-yl)urea] | 9 nM | – | 78 nM
